Assay results reported in patent US11110186B2, “Anionic chelate compounds” (GENERAL ELECTRIC COMPANY, priority 2017, dated 2021).

Assay: not given
Details: estimated in DMSO; arm —C(═O)—N—R2R3 of Formula I; cited from earlier work
For `CC(=O)NC/C=C1\SC(=O)NC1=O`, the “pKa (approx.)” value is given as roughly 6.8.
For `CC(=O)NCCc1ccc(S(=O)(=O)C[N+](=O)[O-])cc1`, the “pKa (approx.)” value is listed as roughly 7.1.
In the case of `CC(=O)NCCc1cc([N+](=O)[O-])ccc1S`, the “pKa (approx.)” value is listed as roughly 5.5.
In the case of `CC(=O)NCCc1ccc(C(=O)C[N+](=O)[O-])cc1`, the “pKa (approx.)” value is given as roughly 7.7.
In the case of `CC(=O)NCCc1cc([N+](=O)[O-])cc([N+](=O)[O-])c1O`, the “pKa (approx.)” value is given as roughly 5.1.
For `CC(=O)NCCc1ccc(C(C#N)C#N)cc1`, the “pKa (approx.)” value is listed as roughly 4.2.
For `CC(=O)NCCS(=O)(=O)O`, the “pKa (approx.)” value is listed as roughly 1.6.

Assay: Measurement of r1 and r2 relaxivities (Bruker mq60 relaxometer)
Assay type: physicochemical
Details: in water at 60 MHz and 40° C.
Description: Manganese containing chelates were dissolved in water at concentrations ranging from […] Mn. T1 and T2 relaxation times were then measured at 60 MHz and 40° C. using a Bruker mq60 relaxometer. Linear fits (R^2>0.99 in all cases) of 1/T1 or 1/T2 as a function of Mn concentration gave r1 or r2 values respectively.
The values in Table 1 are relaxivities in water. The r1 value represents the ability of the chelate to generate T1 (or positive) contrast in a MR scanner while the r2 value represents the ability of the chelate to generate T2 (or negative) contrast in a MR scanner.
With `CN1CCN2Cc3cccc(n3)CN(CC1)C(CCC(=O)NCCS(=O)(=O)O)C(=O)[O][Mn][O]C(=O)C2CCC(=O)NCCS(=O)(=O)O` (stereo not shown) [Mn Chelate 1] the r1 relaxivity was 3.4 mM⁻¹ s⁻¹.
`CN1CCN2Cc3cccc(n3)CN(CC1)C(CCCCNC(=O)[C@H](O)[C@@H](O)C(=O)O)C(=O)[O][Mn][O]C(=O)C2CCCCNC(=O)[C@H](O)[C@@H](O)C(=O)O` (stereo partly shown) [Mn Chelate 2] showed a r1 relaxivity of 4.6 mM⁻¹ s⁻¹.
Work on `CN1CCN2CC(=O)[O][Mn][O]C(=O)CN(CC1)Cc1cccc(n1)C2` [Mn Platform, reference compound] yielded a r1 relaxivity of 1.7 mM⁻¹ s⁻¹.
